The test system of assay [1] is Aeromonas salmonicida. It counts as cell-based. As to conditions: 18 h. The source says:
(§1) Fish bacterial pathogens, Streptococcus iniae (stock 00–1425; isolated from rainbow trout, Oncorhynchus mykiss), Lactococcus garvieae (stock 00–1422; multiple antibiotic-resistant strain), Vibrio anguillarum (stock 91–3057; ATCC 19264), and Aeromonas salmonicida (stock 91–3053; ATCC® 7965™), and human bacterial pathogens, Enterococcus faecalis (stock 00–1403; ATCC 29212), Staphylococcus aureus (ATCC 29213), Shigella flexneri (stock 00–1402; ATCC 12022), and Escherichia coli (stock 00–1405; ATCC 25922), were cultured from frozen stocks stored in glycerol at -80°C. L. garvieae, A. salmonicida, E. faecalis, S. aureus, and S. flexneri were grown in Mueller Hinton Broth (MHB); the MHB was supplemented with 1% NaCl for L. garvieae. S. iniae, and V. anguillarum were grown in Tryptic Soy Broth (TSB) supplemented with 1.5% NaCl and E. coli was grown in Luria-Bertani Broth (LB). The fish and human pathogens were grown at 25°C and 37°C, respectively, while shaking at 200 rpm for 18 h except for S. iniae, which was grown for 48 h. The cultures were passaged at least three times each when in log phase to ensure that they had acclimated to culture.
(§2) The minimum inhibitory concentrations (MIC) and minimum bactericidal concentrations (MBC) were determined as previously described following standard methods recommended by the […] for MIC90 and MBC determinations of clinical isolates with some modifications. Overnight bacterial cultures were diluted to 80–88% transmittance in their appropriate medium. The cultures were then diluted again to 1:200 and 100 μL was pipetted into each of 3 wells in 11 columns of a 96-well plate (Corning, Inc., Tewksbury, MA), the 12th column loaded with media without bacteria as a sterility control and blank.
(§3) The synthetic piscidin peptides (piscidins 1, 4, and 7 from striped bass; piscidins 1, 5, and 6 from white bass; and piscidin 3 corresponding to both striped bass and white bass) were prepared by diluting the 4 mg/mL stocks to 2 mg/mL in 0.2% bovine serum albumin (BSA) + 0.01% acetic acid. These were then serially diluted to a concentration of 3.9 μg/mL in the same diluent. The piscidin dilutions were added to the first 10 columns of the 96-well plate containing bacteria, […] was loaded with diluent only to act as a positive growth control. The final concentrations tested were 200 μg/mL to 0.39 μg/mL. The plates were incubated with shaking at 200 rpm for 18 h, except for S. iniae, which was incubated for 48 h. Fish pathogens and human pathogens were incubated at 25°C and 37°C, respectively. […] The MIC was taken as the lowest concentration of piscidin that reduced growth when compared to the growth control by more than 50%. To determine the MBC, 20 μL of the media from the wells of the three lowest piscidin concentrations that had no visible growth of bacteria were plated onto the appropriate media plates and incubated as described above. Colonies were counted to determine whether growth was equal to or less than 0.1% of the colony forming units (CFUs) in the original inoculum. The MBC was defined as the lowest concentration of piscidin that killed at least 99.9% of the CFUs in the original inoculum.

The subject of assay [2] is Lactococcus garvieae. The assay is classed as cell-based. The settings on record: 18 h.
Excerpt: as §1, §2, §3

In assay [3] the test system is Enterococcus faecalis. The assay is classed as cell-based. The settings on record: 18 h.
Excerpt: as §1, §2, §3

Assay [4] has as its system Streptococcus iniae. It counts as cell-based. The settings on record: 48 h; for MIC: S. iniae stock 00–1425, Gram +, fish pathogen, TSB + 1.5% NaCl, OD630, MIC = lowest concentration reducing growth by more than 50%, 3 wells, 200 to 0.39 μg/mL tested.
Excerpt: as §1, §2, §3

Assay [5] concerns Staphylococcus aureus. It counts as cell-based. As to conditions: 37°C, 18 h; for MIC: S. aureus ATCC 29213, Gram +, human pathogen, MHB, OD630, growth reduced by more than 50%; for MBC: S. aureus ATCC 29213, kills at least 99.9% of CFUs of original inoculum.
Excerpt: as §1, §2, §3

Assay [6] has as its system Vibrio anguillarum. It counts as cell-based. As to conditions: 18 h.
Excerpt: as §1, §2, §3

Assay [7] deals with Shigella flexneri. It counts as cell-based. The settings on record: S. flexneri ATCC 12022; kills at least 99.9% of CFUs of original inoculum; 37°C, 18 h.
Excerpt: as §1, §2, §3

Assay [8] deals with E. coli. The assay is classed as cell-based, Escherichia coli. The settings on record: 18 h.
Excerpt: as §1, §2, §3

The test system of assay [9] is Tetrahymena pyriformis. The settings on record: piscidin 1 not among peptides tested, previously observed results, cited from earlier work; for PC100 (100% parasiticidal concentration): lowest concentration that killed all T. pyriformis. The source says:
Table 4 Minimum parasiticidal concentrations (PCmin) and 100% parasiticidal concentrations (PC100) of various synthetic hybrid striped bass piscidins against the ciliated protozoan, Tetrahymena pyriformis. | column: PCmin (uM) / SB P1; PC100 (uM) / SB P1; PC100 (uM) / WB P1

[10] abbreviates: L. garvieae stock 00–1422, kills at least 99.9% of CFUs of original inoculum, 25°C.
Where [11] appears, read: E. faecalis ATCC 29212, kills at least 99.9% of CFUs of original inoculum, 37°C.
Where [12] appears, read: S. iniae stock 00–1425, lowest concentration killing at least 99.9% of CFUs of original inoculum, plated from MIC wells, 25°C.

As usually defined, the MIC is the lowest concentration that inhibits growth of the organism. In general, MBC refers to the smallest concentration meeting the test's criterion for killing. High values mean less potent killing, low ones more potent killing.

In brackets after ≈: the same amount, converted by molar mass. Where two headings read alike, the source gives them in different places. Where a SMILES comes first, the peptide text is derived from it.

`CC[C@H](C)[C@H](NC(=O)CNC(=O)[C@H](CCCNC(=N)N)NC(=O)[C@H](Cc1ccccc1)NC(=O)[C@@H](NC(=O)[C@H](Cc1c[nH]cn1)NC(=O)[C@H](Cc1c[nH]cn1)NC(=O)[C@H](Cc1ccccc1)NC(=O)[C@@H](N)Cc1ccccc1)[C@@H](C)CC)C(=O)N[C@H](C(=O)N[C@@H](Cc1c[nH]cn1)C(=O)N[C@H](C(=O)NCC(=O)N[C@@H](CCCCN)C(=O)N[C@H](C(=O)N[C@H](C(=O)N[C@@H](Cc1c[nH]cn1)C(=O)N[C@@H](CCCNC(=N)N)C(=O)N[C@@H](CC(C)C)C(=O)N[C@H](C(=O)N[C@H](C(=O)NCC(=O)O)[C@@H](C)O)C(C)C)[C@@H](C)CC)[C@@H](C)O)C(C)C)C(C)C` [SB P1] (H-FFHHIFRGIVHVGKTIHRLVTG-OH): the MIC in assay [1] (A. salmonicida ATCC 7965, Gram -, fish pathogen, MHB, 25°C, OD630, growth reduced by more than 50%) was over 77.76 µM; in assay [2] (L. garvieae stock 00–1422 (multiple antibiotic-resistant), Gram +, fish pathogen, MHB + 1% NaCl, 25°C, OD630, growth reduced by more than 50%), 1.22 µM; in assay [3] (E. faecalis ATCC 29212, Gram +, human pathogen, MHB, 37°C, OD630, growth reduced by more than 50%), 1.22 µM (≈ 3.14 µg/mL); in assay [4] (25°C) it was 1.22 µM; in assay [5] it was 2.43 µM (≈ 6.25 µg/mL); in [6] (V. anguillarum ATCC 19264, Gram -, fish pathogen, TSB + 1.5% NaCl, 25°C, OD630, growth reduced by more than 50%), 2.43 to 4.86 µM. The compound also yielded an MIC in [8] (E. coli ATCC 25922, Gram -, human pathogen, LB, 37°C, OD630, growth reduced by more than 50%) of 4.86 µM (≈ 12.5 µg/mL). The MBC in [2] (setting [10]) was found to be 1.22 µM (≈ 3.14 µg/mL); in assay [3] (setting [11]), 2.43 µM (≈ 6.25 µg/mL); in assay [4] (setting [12]) it was 1.22 µM (≈ 3.14 µg/mL); in [5], 2.43 µM (≈ 6.25 µg/mL); in [6] (V. anguillarum ATCC 19264, kills at least 99.9% of CFUs of original inoculum, 25°C), 9.72 µM (≈ 25 µg/mL); in assay [7], 4.86 µM (≈ 12.5 µg/mL). The “PC100 (100% parasiticidal concentration)” value in assay [9] was 5 µM. Also, the “PCmin (minimum parasiticidal concentration)” value in assay [9] (lowest concentration that killed at least one T. pyriformis) is 2.5 µM.
As to `CC[C@H](C)[C@H](NC(=O)CNC(=O)[C@H](CCCNC(=N)N)NC(=O)[C@H](Cc1ccccc1)NC(=O)[C@@H](NC(=O)[C@H](Cc1c[nH]cn1)NC(=O)[C@H](Cc1c[nH]cn1)NC(=O)[C@@H](NC(=O)[C@@H](N)Cc1ccccc1)[C@@H](C)CC)[C@@H](C)CC)C(=O)N[C@H](C(=O)N[C@@H](Cc1c[nH]cn1)C(=O)N[C@@H](C)C(=O)NCC(=O)N[C@@H](CCCNC(=N)N)C(=O)N[C@@H](CO)C(=O)N[C@H](C(=O)NCC(=O)N[C@@H](CCCNC(=N)N)C(=O)N[C@@H](Cc1ccccc1)C(=O)N[C@@H](CC(C)C)C(=O)N[C@H](C(=O)NCC(=O)O)[C@@H](C)O)[C@@H](C)CC)C(C)C` [SB/WB P3] (H-FIHHIFRGIVHAGRSIGRFLTG-OH; N-terminus and C-terminus assumed), the MBC in assay [1] is over 80.26 µM; in assay [2], 5.02 µM (≈ 12.5 µg/mL); in assay [3], 10.03 µM (≈ 25 µg/mL); in assay [4], 2.51 µM (≈ 6.25 µg/mL); in assay [6], 20.06 µM (≈ 50 µg/mL); in assay [8], 80.26 µM (≈ 200 µg/mL). For the same compound, the MIC is over 80.26 µM in [1], 1.26 µM (≈ 3.14 µg/mL) in assay [3] and 80.26 µM (≈ 200 µg/mL) in assay [8].
Turning to `CC[C@H](C)[C@H](NC(=O)CNC(=O)[C@H](CCCNC(=N)N)NC(=O)[C@H](Cc1ccccc1)NC(=O)[C@@H](NC(=O)[C@H](Cc1c[nH]cn1)NC(=O)[C@H](Cc1c[nH]cn1)NC(=O)[C@H](Cc1ccccc1)NC(=O)[C@@H](N)Cc1ccccc1)[C@@H](C)CC)C(=O)N[C@H](C(=O)N[C@@H](Cc1c[nH]cn1)C(=O)N[C@H](C(=O)NCC(=O)N[C@@H](CCCCN)C(=O)N[C@H](C(=O)N[C@H](C(=O)N[C@@H](Cc1c[nH]cn1)C(=O)N[C@@H](CCCCN)C(=O)N[C@@H](CC(C)C)C(=O)N[C@H](C(=O)N[C@H](C(=O)NCC(=O)O)[C@@H](C)O)C(C)C)[C@@H](C)CC)[C@@H](C)O)C(C)C)C(C)C` [WB P1] (H-FFHHIFRGIVHVGKTIHKLVTG-OH; N-terminus and C-terminus assumed), the MBC in assay [1] was over 78.61 µM; in [2] (setting [10]), 2.46 µM (≈ 6.26 µg/mL); in [3] (setting [11]), 2.46 µM (≈ 6.26 µg/mL); in assay [4] (setting [12]), 2.46 µM (≈ 6.26 µg/mL); in assay [5], 2.46 µM (≈ 6.26 µg/mL); in [6], 9.83 µM (≈ 25 µg/mL). Also, in assay [8], the MBC was over 78.61 µM. In addition, the minimal inhibitory concentration (MIC) is over 78.61 µM in assay [1]; 1.23 µM (≈ 3.13 µg/mL) in assay [3]; 2.46 µM in assay [4] (25°C); 2.46 µM (≈ 6.26 µg/mL) in [5]; 4.91 µM (≈ 12.5 µg/mL) in [8]. Moreover, the “PC100 (100% parasiticidal concentration)” value in assay [9] is 2.48 µM.
